The text below walks through data of PubChem BioAssay (NCI).

Molecules are shown by their SMILES. “And” between values parts separate entries of the source, which are not always exact repeats. Equal values may be shown once.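 Values below derive from 48-hour exposures of cells grown in 96-well plates, with endpoints linearly interpolated between the two concentrations bracketing the appropriate inhibition level. GI50: concentration for 50% inhibition of growth. At the TGI there is no net growth.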

What all share (test): DTP human tumour cell line panel, 48 h
Experiment [1] concerns KM12 colon.
Experiment [2] has as its system U251 CNS.
The subject of experiment [3] is UACC-62 melanoma.
In experiment [4] the test system is SNB-75 CNS.
The test system of experiment [5] is SNB-19 CNS.
Experiment [6] relates to RXF 393 renal.
Experiment [7] concerns HT29 colon.
The subject of experiment [8] is NCI-H226 lung.
For experiment [9], the system named is A549 NSCLC.
The subject of experiment [10] is HCT-15 colon.

A word on the GI50: it is the concentration that inhibits growth by half. One may read the TGI as the concentration giving total growth inhibition. For `O=C(CCCCN1CCN(CCCCC(=O)Nc2ccccc2C#C/C=C\C#Cc2ccccc2C(F)(F)F)CC1)Nc1ccccc1C#C/C=C\C#Cc1ccccc1C(F)(F)F`, the GI50 in experiment [1] is 13.2 µM; in experiment [2] it was 9.01 µM; in experiment [3], 11 µM; in experiment [4], 10.3 µM; in experiment [5] it was 11.7 µM; in experiment [6], 9.81 µM. In addition, the GI50 was 7.11 µM in experiment [7], 40.7 µM in experiment [8], 12.4 µM in experiment [9] and 10.5 µM in experiment [10]. In addition, the TGI in [1] is 33 µM; in [2] it was 18.9 µM; in [3], 22.8 µM; in [4], 26.9 µM; in experiment [5], 32.1 µM; in experiment [6], 23.5 µM. Further, the concentration for total growth inhibition (TGI) was 26.2 µM in [7], over 50 µM in [8], 37.6 µM in experiment [9] and 23.8 µM in experiment [10].
In the case of `Cc1cc(OC2OC(CO)C(O)C(O)C2O)ccc1O` (stereo not drawn), the TGI in [1], in experiment [2], in [3], in experiment [4], in experiment [5] and in experiment [6] was over 100 µM each time. Further, the TGI in experiment [7], in [9] and in experiment [10] was over 100 µM each time.
Regarding `CN1CCCc2nc3ccccc3n2C1`, the TGI in experiment [1], in experiment [2], in experiment [3], in [4], in [5] and in experiment [6] was over 100 µM each time. Moreover, the TGI in experiment [7], in [8], in experiment [9] and in experiment [10] was over 100 µM each time.
`CCCCCCCCCCCCCC(=O)O[C@H]1CC[C@H](NC(=O)[C@H](OC)[C@H](O)[C@@H](O)[C@H](O)/C=C/C(C)C)C(=O)N(C)C1`: the 50% growth inhibitory concentration (GI50) in experiment [1] was 0.00238 µM; in experiment [2], under 0.0015 µM; in [3] it was 0.00238 µM; in experiment [4], 0.0217 µM; in [5] it was 0.0093 µM; in experiment [6], 0.00238 µM. The GI50 in experiment [7] was 0.00238 µM; in experiment [8], 0.544 µM; in [9], 0.00238 µM; in [10], 0.23 µM. Besides, the TGI was 15 µM and 2.96 µM in experiment [1]; 15 µM and 3.06 µM in experiment [2]; 0.0655 µM and 0.00779 µM in [3]; 15 µM and > 23.8 µM in experiment [4]; 15 µM and > 23.8 µM in experiment [5]; 15 µM and 3.07 µM in experiment [7]. The concentration for total growth inhibition (TGI) in [9] was 15 µM and 4.49 µM; in experiment [10], 15 µM and > 23.8 µM.
For the molecule `O=C1OC(=O)c2c1nc1ccccc1c2-c1ccccc1`, the TGI in [1], in experiment [2], in experiment [3], in [4], in [5] and in experiment [6] was over 100 µM each time. The TGI in experiment [7], in [8], in [9] and in [10] was over 100 µM throughout.
`CN(C)CCNC(=O)Nc1ccc(N(C)c2ccnc(Nc3ccc(CS(C)(=O)=O)cc3)n2)cc1`: the GI50 in experiment [1] was 9.88 µM; in experiment [2] it was over 25 µM; in experiment [3], over 25 µM; in experiment [4] it was over 12.7 µM; in experiment [5], over 25 µM; in experiment [6], over 25 µM. In addition, the GI50 in experiment [7] was over 25 µM; in [8] it was over 23.7 µM; in experiment [9] it was over 25 µM; in [10], over 25 µM. The TGI in experiment [1], in experiment [2], in experiment [3], in experiment [4], in experiment [5] and in [6] was over 25 µM throughout. Also, the TGI in experiment [7], in experiment [8], in [9] and in experiment [10] was over 25 µM each time.
Turning to `COC(=O)[C@]12CC[C@@H](C)[C@H](C)[C@@H]1C1=CC[C@@H]3[C@@]4(C)C(C=O)=C[C@@](C)(COS(C)(=O)=O)C4=CC[C@@]3(C)[C@]1(C)CC2`, the GI50 in [2] was 0.23 µM; in experiment [3] it was 0.2 µM; in experiment [4], 0.161 µM; in experiment [5] it was 0.48 µM; in [6] it was 0.17 µM; in experiment [7], 0.144 µM. The GI50 in experiment [8] was 0.232 µM; in experiment [9], 0.468 µM. In addition, the TGI came to 0.606 µM in experiment [2]; 0.551 µM in experiment [3]; 0.61 µM in [4]; 1.96 µM in experiment [5]; 0.358 µM in experiment [6]; 0.37 µM in experiment [7]. Moreover, the TGI was 0.635 µM in [8] and 1.92 µM in experiment [9].
Consider `C[C@]12CCc3nc(Nc4ccc(O)cc4)sc3C1=CC[C@@H]1[C@@H]2CC[C@]2(C)/C(=N/NC(N)=S)CC[C@@H]12`, for which the GI50 is 1.26 µM in experiment [1]; 1.29 µM in experiment [2]; 1.43 µM in [3]; 0.68 µM in experiment [4]; 1.38 µM in experiment [5]; 1.23 µM in experiment [6]. The GI50 in experiment [8] is 1.71 µM; in experiment [9], 0.498 µM; in [10] it was 1.24 µM. The TGI in experiment [1] is 2.74 µM; in experiment [2], 2.6 µM; in experiment [3] it was 2.89 µM; in experiment [4] it was 2.46 µM; in experiment [5] it was 2.94 µM; in [6], 2.69 µM. The TGI stood at 4.05 µM in [8], 1.86 µM in experiment [9] and 3.03 µM in [10].
On to `CC1CCCP(=O)(c2ccccc2)CCC1` (stereo not drawn), for which the TGI in [1], in experiment [2], in [3], in experiment [4], in experiment [5] and in experiment [6] was over 100 µM each time. For the same molecule, the TGI in experiment [7], in experiment [9] and in experiment [10] was over 100 µM each time.
`CC(C)(C)OC(=O)N[C@H]1CC(=O)c2ccccc2N(CC(=O)O)C1=O`: the total growth inhibition concentration (TGI) in experiment [1], in experiment [3], in [4], in [5], in experiment [6] and in experiment [7] was over 100 µM in each case. For the same molecule, the TGI in [8], in experiment [9] and in experiment [10] was over 100 µM throughout.
With `COc1ccc([C@@]23Oc4cc(OC)cc(OC)c4[C@]2(O)[C@H](O)[C@H](C(=O)N(C)C)[C@H]3c2ccccc2)cc1`, the TGI in experiment [1] was 0.0892 µM and 0.281 µM; in experiment [5] it was 1.37 µM and 0.159 µM; in experiment [6] it was 0.0823 µM and 0.0262 µM and 0.0785 µM. Further, the GI50 in experiment [2] was 0.0157 µM; in [3] it was 0.0243 µM; in [4], 0.0149 µM; in [5] it was 0.0113 µM; in experiment [6], 0.0178 µM; in [10], 0.015 µM.
Turning to `COC(=O)C1CCC(C)CC1=O` (stereo not drawn), the TGI in experiment [1], in experiment [2], in experiment [3], in experiment [4], in experiment [5] and in experiment [6] was over 100 µM in each case. The TGI in experiment [7], in experiment [9] and in experiment [10] was over 100 µM throughout.
Regarding `C1CN2CCO[SiH](O1)OCC2`, the TGI in experiment [1], in [2], in experiment [3], in experiment [4], in experiment [5] and in experiment [6] was over 100 µM each time. Further, the TGI in experiment [7], in experiment [8] and in experiment [9] was over 100 µM each time.
In the case of `[O-][n+]1c2cccc(O)c2[n+]([O-])c2cccc(O)c21`, the TGI in [1], in experiment [2], in experiment [4], in [5], in experiment [6] and in [7] was over 100 µM throughout. The TGI in experiment [9] and in [10] was over 100 µM throughout.
On to `N#Cc1c(-c2ccccc2)c(-c2ccccc2)cc2c(=O)c3ccc(Cl)cc3[nH]c12`, for which the TGI in [2], in experiment [3], in experiment [4], in experiment [5], in [6] and in experiment [7] was over 100 µM each time. The TGI in experiment [8], in [9] and in [10] was over 100 µM throughout.
Consider `O=C1c2cccc3c(N4CCOCC4)ccc(c23)C(=O)N1CCN1CCN(CCCCCN2CCN(CCN3C(=O)c4cccc5c(N6CCOCC6)ccc(c45)C3=O)CC2)CC1`, for which the GI50 was over 100 µM in experiment [2]; 77.6 µM in [3]; over 100 µM in experiment [4]; over 100 µM in experiment [5]; 59.8 µM in [6]; 58 µM in experiment [7]. Also, the GI50 in experiment [8] was 87.3 µM; in [9], over 100 µM; in experiment [10] it was over 100 µM. The TGI in experiment [2], in experiment [3], in experiment [4], in experiment [5], in [6] and in experiment [7] was over 100 µM each time. In addition, the TGI in experiment [8], in [9] and in experiment [10] was over 100 µM throughout.
Consider `O=C(Nc1ccccc1C(=O)NC(=O)c1ccccc1NC(=O)c1ccccc1)c1ccccc1`, for which the TGI in [1] was 3.17 µM; in experiment [2] it was 18.8 µM; in [3] it was 5.54 µM; in experiment [4], 8.87 µM; in experiment [5], 24.8 µM; in experiment [6], 9.15 µM. Also, the TGI turned out to be 12.7 µM in experiment [7], 23.1 µM in experiment [9] and 34.3 µM in experiment [10].
As to `Cc1ccc(-n2nc(C(OC3OC(CO)C(O)C(O)C3O)C(O)CO)c3nc4cc(C)c(C)cc4nc32)cc1` (stereo not drawn), the TGI in [1], in experiment [2], in experiment [3], in experiment [4], in [5] and in [6] was over 100 µM throughout. Also, the TGI in experiment [7] and in [10] was over 100 µM in each case.
Take `CCN(CC)CCCC(Nc1c2ccc(Cl)cc2nc2ccc(OC)cc12)c1ccc(Cl)cc1` (stereo not drawn): the GI50 was 1.52 µM in experiment [1]; 0.579 µM in experiment [2]; 1.16 µM in [4]; 1.03 µM in experiment [6]; 0.45 µM in experiment [7]; 1.52 µM in [9]. Besides, the GI50 in experiment [10] was 0.404 µM. The TGI was found to be 2.99 µM in experiment [1]; 1.83 µM in [2]; 2.44 µM in [4]; 2.31 µM in [6]; 1.75 µM in experiment [7]; 3.05 µM in [9]. In experiment [10], this molecule gave a TGI of 1.59 µM.
For the molecule `CCOC(=O)C[C@@]12CCCN[C@]1(C)CCc1ccccc12`, the TGI in experiment [1], in experiment [2], in [3], in experiment [4], in experiment [5] and in experiment [6] was over 100 µM throughout. For the same molecule, the TGI in experiment [7], in experiment [9] and in experiment [10] was over 100 µM in each case.
Turning to `Cc1nc2ccncc2[nH]1`, the TGI in [2], in [3], in [4], in experiment [5], in experiment [6] and in experiment [7] was over 100 µM each time. Also, the total growth inhibition concentration (TGI) in experiment [8], in [9] and in experiment [10] was over 100 µM throughout.
For `O=[N+]([O-])/C=C/c1ccc2ccccc2c1`, the TGI in experiment [1] was 3.09 µM; in experiment [2], 3.08 µM; in [3], 32.8 µM; in experiment [4] it was 5.17 µM; in [5], 5.13 µM; in experiment [6] it was 5.72 µM. The TGI was 21.3 µM in [8] and over 58.5 µM in experiment [9].
